Data reported in patent publication US8710233B2 (Gruenenthal GmbH, priority 2005, dated 2014).
Where two headings read alike, the source gives them in different places.

Tests used:
Format in all cases: cell-based
VR1/TRPV1 receptor = VR1/TRPV1 receptor (Homo sapiens, UniProt Q8NER1); test: IC50 (human) after pH stimulus; settings: for inhibition at 1 µM: ne = no effect
[1] = target: T1, vanilloid receptor 1 (VR1/TRPV1) of the rat species (Rattus norvegicus, UniProt O35433); test: FLIPR Ca2+ influx assay on rat dorsal root ganglia cells (pharmacological method I)
T1 construct: The spinal column is removed from decapitated rats; from tissue; host or cells: primary cells dissociated from rat dorsal root ganglia
Procedure, shortened: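 Primary rat dorsal root ganglion cells loaded with 2 μM Fluo-4, Ca2+ influx read on FLIPR as peak fluorescence. Triplicates, at least 3 independent experiments.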

vanilloid receptor (VR1) = target: T2, vanilloid receptor (VR1) (Homo sapiens, UniProt Q8NER1); test: FLIPR Ca2+ influx assay on CHO K1 cells transfected with the VR1 gene (pharmacological method II)
T2 construct: expressed in transfected cells; host or cells: CHO K1 cells (ECACC), stably transfected

[2] = table 4, capsaicin, read-out: Ki (rat) Cap.
[3] = table 4, capsaicin, read-out: Ki (human) Cap.
[4] = read-out: inhibition in percent, IC50 (human) after pH stimulus
[5] = Table 2, displacement of capsaicin (100 nM), Cheng-Prusoff, read-out: Ki (rat)
[6] = Table 2, displacement of capsaicin (100 nM), Cheng-Prusoff, read-out: Ki (human)
[7] = Ki (rat) Cap., table 4, capsaicin

T1 sequence (O35433 whole entry): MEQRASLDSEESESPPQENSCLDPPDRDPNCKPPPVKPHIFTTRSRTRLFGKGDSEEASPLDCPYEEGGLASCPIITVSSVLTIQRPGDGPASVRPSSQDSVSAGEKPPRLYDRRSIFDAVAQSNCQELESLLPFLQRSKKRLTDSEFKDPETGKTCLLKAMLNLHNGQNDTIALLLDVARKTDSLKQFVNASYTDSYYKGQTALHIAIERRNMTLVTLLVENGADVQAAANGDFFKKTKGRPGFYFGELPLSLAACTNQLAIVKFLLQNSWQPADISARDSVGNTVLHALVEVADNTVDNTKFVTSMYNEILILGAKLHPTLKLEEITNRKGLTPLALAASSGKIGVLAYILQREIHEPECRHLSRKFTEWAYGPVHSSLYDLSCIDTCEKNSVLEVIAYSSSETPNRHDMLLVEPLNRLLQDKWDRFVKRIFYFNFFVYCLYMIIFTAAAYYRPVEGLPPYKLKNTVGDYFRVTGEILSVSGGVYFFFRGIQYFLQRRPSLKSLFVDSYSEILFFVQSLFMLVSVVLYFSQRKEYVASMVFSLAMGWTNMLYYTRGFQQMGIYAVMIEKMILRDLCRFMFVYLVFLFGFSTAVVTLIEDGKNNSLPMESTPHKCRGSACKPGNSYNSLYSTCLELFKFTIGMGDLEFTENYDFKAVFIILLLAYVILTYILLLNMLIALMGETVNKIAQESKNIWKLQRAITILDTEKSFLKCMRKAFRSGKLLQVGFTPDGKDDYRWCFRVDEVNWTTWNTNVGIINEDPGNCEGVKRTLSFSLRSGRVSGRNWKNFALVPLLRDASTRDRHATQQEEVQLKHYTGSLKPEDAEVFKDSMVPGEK
Chain of VR1/TRPV1 receptor (Q8NER1 whole entry): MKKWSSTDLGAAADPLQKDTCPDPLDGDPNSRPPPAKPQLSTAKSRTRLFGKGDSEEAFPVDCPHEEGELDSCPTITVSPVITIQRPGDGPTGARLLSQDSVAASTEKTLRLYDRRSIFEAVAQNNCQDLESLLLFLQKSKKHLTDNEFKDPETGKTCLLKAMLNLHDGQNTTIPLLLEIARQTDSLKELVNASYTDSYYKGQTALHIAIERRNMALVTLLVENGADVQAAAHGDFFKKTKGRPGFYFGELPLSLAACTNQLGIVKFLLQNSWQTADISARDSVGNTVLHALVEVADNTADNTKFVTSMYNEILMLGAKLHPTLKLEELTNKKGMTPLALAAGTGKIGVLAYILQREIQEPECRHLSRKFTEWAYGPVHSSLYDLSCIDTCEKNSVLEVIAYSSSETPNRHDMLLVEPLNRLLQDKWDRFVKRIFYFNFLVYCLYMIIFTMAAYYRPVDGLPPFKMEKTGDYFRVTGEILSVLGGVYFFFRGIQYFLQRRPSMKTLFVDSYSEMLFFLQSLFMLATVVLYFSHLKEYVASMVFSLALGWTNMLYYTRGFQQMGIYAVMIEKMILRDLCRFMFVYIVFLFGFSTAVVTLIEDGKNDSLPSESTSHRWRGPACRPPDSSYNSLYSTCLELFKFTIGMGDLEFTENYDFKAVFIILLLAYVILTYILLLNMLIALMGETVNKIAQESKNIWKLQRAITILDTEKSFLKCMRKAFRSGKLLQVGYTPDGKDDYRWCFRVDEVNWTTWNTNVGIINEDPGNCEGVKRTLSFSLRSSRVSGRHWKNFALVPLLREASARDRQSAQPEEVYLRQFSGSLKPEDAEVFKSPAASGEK
T2 sequence (Q8NER1 whole entry): as above

| SMILES | IC50 (VR1/TRPV1 receptor; table 4) [nM] | Ki [1, 2] [nM] | Ki (vanilloid receptor (VR1); [3]) [nM] | other results |
| --- | --- | --- | --- | --- |
| CC(C(=O)NCc1ccc(C(F)(F)F)cc1N1CCC(C(F)(F)F)CC1)c1ccc(NS(C)(=O)=O)c(F)c1 (stereo not drawn) [Example 230, 2-(3-fluoro-4-methylsulfonamido-phenyl)-N-[4-trifluoromethyl-2-(4-trifluoromethyl-piperidin-1-yl)-benzyl]-propionamide] | 20.1 | 0.6 | 0.4 |  |
| Cc1cc(C(C)C(=O)NCc2ccc(C(F)(F)F)nc2N2CCC(C)CC2)ccc1NS(C)(=O)=O (stereo not drawn) [Example 196, 2-(4-methylsulfonamido-3-methyl-phenyl)-N-(4-methyl-6′-trifluoromethyl-3,4,5,6-tetrahydro-2H-[1,2′]bipyridinyl-3′-ylmethyl)-propionamide] |  | 0.4 | 0.6 | inhibition at 1 µM (VR1/TRPV1 receptor; [4]): 41% |
| CC(C(=O)NCc1ccc(C(F)(F)F)nc1N1CCCC1)c1ccc(NS(C)(=O)=O)c(F)c1 (stereo not drawn) [Example 13, 2-(3-fluoro-4-(methylsulfonamido)phenyl)-N-((2-(pyrrolidin-1-yl)-6-(trifluoromethyl)pyridin-3-yl)methyl)propanamide] |  |  |  | IC50 (VR1/TRPV1 receptor; Table 2): 211 nM; Ki [1, 5]: 3.8 nM; Ki (vanilloid receptor (VR1); [6]): 0.6 nM |
| C[C@H](C(=O)NCc1ccc(C(F)(F)F)cc1N1CCCCC1)c1ccc(NS(C)(=O)=O)c(F)c1 [Example 31, (S)-2-(3-fluoro-4-(methylsulfonamido)phenyl)-N-(2-(piperidin-1-yl)-4-(trifluoromethyl)benzyl)propanamide] |  |  |  | IC50 (VR1/TRPV1 receptor; Table 2): 50 nM; Ki [1, 5]: 0.5 nM; Ki (vanilloid receptor (VR1); [6]): 0.6 nM |
| CC1CCC(Oc2nc(C(F)(F)F)ccc2CNC(=O)C(C)c2ccc(NS(C)(=O)=O)c(F)c2)CC1 (stereo not drawn) [Example 157, 2-(3-fluoro-4-methylsulfonamido-phenyl)-N-[2-(4-methyl-cyclohexyloxy)-6-trifluoromethyl-pyridin-3-ylmethyl]-propionamide] | 43.1 |  | 2.9 | Ki [1, 7]: 1.3 nM |
| CC(C(=O)NCc1ccc(C(F)(F)F)nc1N1CCC(C#N)(c2ccccc2)CC1)c1ccc(NS(C)(=O)=O)c(F)c1 (stereo not drawn) [Example 285, N-(4-cyano-4-phenyl-6′-trifluoromethyl-3,4,5,6-tetrahydro-2H-[1,2′]bipyridinyl-3′-ylmethyl)-2-(3-fluoro-4-methylsulfonamido-phenyl)-propionamide] | 377 | 4.5 | 3.5 |  |
| CC(C(=O)NCc1ccc(C(C)(C)C)nc1OCc1ccccc1)c1ccc(NS(C)(=O)=O)c(F)c1 (stereo not drawn) [Example 237, N-(2-benzyloxy-6-tert-butyl-pyridin-3-ylmethyl)-2-(3-fluoro-4-methylsulfonamido-phenyl)-propionamide] |  | 2 | 4.4 | inhibition at 1 µM (VR1/TRPV1 receptor; [4]): 70% |
| CCCOc1nc(C(F)(F)F)ccc1CNC(=O)C(C)c1ccc(NS(C)(=O)=O)c(F)c1 (stereo not drawn) [Example 111, 2-(3-fluoro-4-methylsulfonamido-phenyl)-N-(2-propoxy-6-trifluoromethyl-pyridin-3-ylmethyl)-propionamide] | 90.1 | 3.5 | 0.9 |  |
| CCCCOc1nc(C(C)(C)C)ccc1CNC(=O)C(C)c1ccc(NS(C)(=O)=O)c(F)c1 (stereo not drawn) [Example 235, N-(2-butoxy-6-tert-butyl-pyridin-3-ylmethyl)-2-(3-fluoro-4-methylsulfonamido-phenyl)-propionamide] | 55 | 0.6 | 0.9 |  |
| CC(C(=O)NCc1ccc(C(F)(F)F)nc1-c1ccc(F)c(Cl)c1)c1ccc(NS(C)(=O)=O)c(F)c1 (stereo not drawn) [Example 118] | 7.6 | 0.2 | 0.2 |  |
| CC(C(=O)NCc1ccc(C(F)(F)F)nc1N1CCC(C)(C)CC1)c1ccc(NS(C)(=O)=O)c(F)c1 (stereo not drawn) [Example 210, N-(4,4-dimethyl-6′-trifluoromethyl-3,4,5,6-tetrahydro-2H-[1,2′]bipyridinyl-3′-ylmethyl)-2-(3-fluoro-4-methylsulfonamido-phenyl)-propionamide] | 8 | 0.2 | 0.3 |  |
| CC(C(=O)NCc1ccc(C(F)(F)F)nc1-c1ccc2c(c1)OCCO2)c1ccc(NS(C)(=O)=O)c(F)c1 (stereo not drawn) [Example 265, N-[2-(2,3-dihydro-benzo[1,4]dioxin-6-yl)-6-trifluoromethyl-pyridin-3-ylmethyl]-2-(3-fluoro-4-methylsulfonamido-phenyl)-propionamide] |  | 2.5 | 5 | inhibition at 0.1 µM (VR1/TRPV1 receptor; [4]): 17%; inhibition at 1 µM (VR1/TRPV1 receptor; [4]): 33% |
| CC(C(=O)NCc1ccc(C(F)(F)F)cc1N1CCC(Cc2ccccc2)CC1)c1ccc(NS(C)(=O)=O)c(F)c1 (stereo not drawn) [Example 231, N-[2-(4-benzyl-piperidin-1-yl)-4-trifluoromethyl-benzyl]-2-(3-fluoro-4-methylsulfonamido-phenyl)-propionamide] | 37.6 | 0.8 | 1.4 |  |
| CC(C(=O)NCc1ccc(C(F)(F)F)nc1N1CCC2(CC1)CC(C(C)(C)C)=NO2)c1ccc(NS(C)(=O)=O)c(F)c1 (stereo not drawn) [Example 251, N-[2-(3-tert-butyl-1-oxa-2,8-diaza-spiro[4.5]dec-2-en-8-yl)-6-trifluoromethyl-pyridin-3-ylmethyl]-2-(3-fluoro-4-methylsulfonamido-phenyl)-propionamide] | 281 | 8.7 | 3.8 |  |
| CC(C(=O)NCc1ccc(C(F)(F)F)nc1OCC1CCCCC1)c1ccc(NS(C)(=O)=O)c(F)c1 (stereo not drawn) [Example 270, N-(2-cyclohexylmethoxy-6-trifluoromethyl-pyridin-3-ylmethyl)-2-(3-fluoro-4-methylsulfonamido-phenyl)-propionamide] | 19.7 |  | 0.7 | Ki [1, 7]: 0.5 nM |
| Cc1cc(C(C)C(=O)NCc2ccc(C(F)(F)F)nc2N2CCN(c3ccccc3)CC2)ccc1NS(C)(=O)=O (stereo not drawn) [Example 203, 2-(4-methylsulfonamido-3-methyl-phenyl)-N-[2-(4-phenyl-piperazin-1-yl)-6-trifluoromethyl-pyridin-3-ylmethyl]-propionamide] |  | 3.3 | 3 | inhibition at 0.1 µM (VR1/TRPV1 receptor; [4]): 0%; inhibition at 1 µM (VR1/TRPV1 receptor; [4]): 24% |
| CC1CCN(c2nc(C(F)(F)F)ccc2CNC(=O)C(C)c2ccc(NS(C)(=O)=O)cc2)CC1 (stereo not drawn) [Example 262, 2-(4-methylsulfonamido-phenyl)-N-(4-methyl-6′-trifluoromethyl-3,4,5,6-tetrahydro-2H-[1,2′]bipyridinyl-3′-ylmethyl)-propionamide] |  | 1.7 | 1.2 | inhibition at 0.1 µM (VR1/TRPV1 receptor; [4]): 6%; inhibition at 1 µM (VR1/TRPV1 receptor; [4]): 58% |
| C[C@H](C(=O)NCc1ccc(C(F)(F)F)nc1N1CCOCC1)c1ccc(NS(C)(=O)=O)c(F)c1 [Example 72, (S)-2-(3-Fluor-4-(methylsulfonamido)phenyl)-N-((2-morpholino-6-(trifluoromethyl)pyridin-3-yl)methyl)propanamide] |  |  |  | IC50 (VR1/TRPV1 receptor; Table 2): 1660 nM; Ki [1, 5]: 124 nM; Ki (vanilloid receptor (VR1); [6]): 32.6 nM |
| Cc1ccc(COc2nc(C(F)(F)F)ccc2CNC(=O)C(C)c2ccc(NS(C)(=O)=O)c(F)c2)cc1 (stereo not drawn) [Example 172, 2-(3-fluoro-4-methylsulfonamido-phenyl)-N-[2-(4-methyl-benzyloxy)-6-trifluoromethyl-pyridin-3-ylmethyl]-propionamide] | 53 | 0.4 | 1.5 |  |
| CCCCN(CCCC)c1nc(C(F)(F)F)ccc1CNC(=O)C(C)c1ccc(NS(C)(=O)=O)c(F)c1 (stereo not drawn) [Example 183, N-(2-dibutylamino-6-trifluoromethyl-pyridin-3-ylmethyl)-2-(3-fluoro-4-methylsulfonamido-phenyl)-propionamide] | 10.5 | 0.7 | 0.6 |  |
| CC(C(=O)NCc1ccc(C(F)(F)F)nc1NCc1ccccc1)c1ccc(NS(C)(=O)=O)c(F)c1 (stereo not drawn) [Example 115, N-(2-benzylamino-6-trifluoromethyl-pyridin-3-ylmethyl)-2-(3-fluoro-4-methylsulfonamido-phenyl)-propionamide] | 203 | 10.9 | 15.8 |  |
| CC1CC(C)CN(c2nc(C(F)(F)F)ccc2CNC(=O)C(C)c2ccc(NS(C)(=O)=O)c(F)c2)C1 (stereo not drawn) [Example 79, 2-(3-fluoro-4-methylsulfonamido-phenyl)-N-(2-3,5 dimethylpiperidin-1-yl-6-trifluoromethyl-pyridin-3-ylmethyl)-propionamide] | 25.6 | 0.8 | 0.7 |  |
| CC(C)COc1nc(C(F)(F)Cl)ccc1CNC(=O)C(C)c1ccc(NS(C)(=O)=O)c(F)c1 (stereo not drawn) [Example 208, N-[6-(chloro-difluoro-methyl)-2-isobutoxy-pyridin-3-ylmethyl]-2-(3-fluoro-4-methylsulfonamido-phenyl)-propionamide] | 38.6 | 0.5 | 0.6 |  |
| CC(C(=O)NCc1ccc(C(F)(F)F)nc1N1CCN(C)CC1)c1ccc(NS(C)(=O)=O)c(F)c1 (stereo not drawn) [Example 134, 2-(3-fluoro-4-methylsulfonamido-phenyl)-N-[2-(4-methyl-piperazin-1-yl)-6-trifluoromethyl-pyridin-3-ylmethyl]-propionamide] |  | 335 | 146 | inhibition at 25 µM (VR1/TRPV1 receptor; @ 25 μM, read-out: inhibition in percent, IC50 (human) after pH stimulus): 69% |
| CC(C(=O)NCc1ccc(C(F)(F)Cl)nc1N1CCN(c2ccccc2)CC1)c1ccc(NS(C)(=O)=O)c(F)c1 (stereo not drawn) [Example 207] | 38.6 | 0.8 | 0.8 |  |
